Columns and labels:
[1] = target: T1, GCG-R (Homo sapiens, UniProt P47871); test: GCG activity test (cAMP, chemiluminescence); format: cell-based
T1 construct: expressed in transfected cells; host or cells: CHO-K1
Experimental: (§1) Upon stimulation by a specific agonist, GCG-R activates the intracellular adenylate cyclase signaling pathway, resulting in an increase in cAMP levels and ultimately leading to insulin production and secretion. A cell line stably transfected with GCG-R was stimulated with test compounds, thereby rapidly increasing intracellular cAMP levels. The relative luminescence units (RLU) of cells stimulated at various concentrations were measured by a chemiluminescence method, and the EC50 value of the agonist was calculated accordingly. This activity assay method is currently a commonly used method for evaluating GCG receptor agonist activity both domestically and internationally.
A CHO-K1 cell line stably expressing GCG-R was used. The stable cells were stimulated with agonists at different concentrations, and the relative luminescence units after stimulation at each concentration were measured to calculate the EC50 value of the agonist.

[2] = target: T2, GLP-1R (Homo sapiens, UniProt P43220); test: GLP-1 activity test (cAMP, chemiluminescence); format: cell-based
T2 construct: expressed in transfected cells; host or cells: CHO-K1
Experimental: as §1, with “GLP-1R” for “GCG-R”, “test” for “assay”, “GLP-1” for “GCG”, “internationally. A CHO-K1 cell line stably expressing GLP-1R was used. The stable cells were stimulated with agonists at different concentrations, and the relative luminescence units after stimulation at each concentration were measured to calculate the EC50 value of the agonist.” for “internationally.”

[3] = Preliminary pharmacokinetic evaluation, plasma concentration by LC-MS; format: in vivo, cynomolgus monkeys; settings: for half-life: cynomolgus monkey, male cynomolgus monkeys, subcutaneously (SC), 0.2 mg/kg, plasma; for half-lives: cynomolgus monkeys, administered subcutaneously
Experimental: The test animals were male cynomolgus monkeys. Two animals were used for each compound. The compounds were administered subcutaneously at a dose of 0.2 mg/kg. Blood samples were collected via intravenous sampling prior to administration (0 h) and at 1 h, 2 h, 3 h, 4 h, 8 h, 12 h, 18 h, 24 h, 48 h, 96 h, 144 h, and 168 h after administration. Plasma samples were obtained by centrifugation. The plasma concentrations of the compounds were respectively determined by liquid chromatography - mass spectrometry (LC-MS).

[4] = target: T3, GIPR (Homo sapiens, UniProt P48546); test: GIP activity test (cAMP, chemiluminescence); format: cell-based
T3 construct: expressed in transfected cells; host or cells: CHO-K1
T3 sequence (P48546 22-466): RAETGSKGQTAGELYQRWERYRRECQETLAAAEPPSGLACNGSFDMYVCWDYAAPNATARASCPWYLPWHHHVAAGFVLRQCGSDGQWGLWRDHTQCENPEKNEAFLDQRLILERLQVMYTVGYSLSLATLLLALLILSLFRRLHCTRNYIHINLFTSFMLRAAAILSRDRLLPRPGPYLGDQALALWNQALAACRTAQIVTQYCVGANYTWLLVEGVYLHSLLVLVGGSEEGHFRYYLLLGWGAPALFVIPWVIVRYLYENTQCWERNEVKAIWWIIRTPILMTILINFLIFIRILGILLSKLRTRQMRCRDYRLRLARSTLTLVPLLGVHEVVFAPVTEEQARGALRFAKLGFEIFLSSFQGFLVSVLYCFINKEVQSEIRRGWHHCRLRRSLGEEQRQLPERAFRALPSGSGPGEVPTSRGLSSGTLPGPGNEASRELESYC
Experimental: as §1, with “GIPR” for “GCG-R”, “GIP” for “GCG”, “internationally. A CHO-K1 cell line stably expressing GIPR was used. The stable cells were stimulated with agonists at different concentrations, and the relative luminescence units after stimulation at each concentration were measured to calculate the EC50 value of the agonist.” for “internationally.”

T2 sequence (P43220 24-463, species assumed): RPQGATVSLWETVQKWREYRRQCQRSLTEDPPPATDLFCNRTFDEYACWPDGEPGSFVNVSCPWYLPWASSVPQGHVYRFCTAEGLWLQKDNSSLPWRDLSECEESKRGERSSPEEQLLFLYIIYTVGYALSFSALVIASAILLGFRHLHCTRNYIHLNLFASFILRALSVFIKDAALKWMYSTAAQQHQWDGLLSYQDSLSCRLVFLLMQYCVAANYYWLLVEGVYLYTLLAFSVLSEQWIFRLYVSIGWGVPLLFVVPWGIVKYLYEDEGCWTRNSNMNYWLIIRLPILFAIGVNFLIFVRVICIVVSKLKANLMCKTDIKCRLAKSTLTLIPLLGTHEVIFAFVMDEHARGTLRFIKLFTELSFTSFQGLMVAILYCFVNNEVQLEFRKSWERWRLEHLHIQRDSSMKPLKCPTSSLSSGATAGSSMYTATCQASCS
T1 sequence (P47871 26-477, species assumed): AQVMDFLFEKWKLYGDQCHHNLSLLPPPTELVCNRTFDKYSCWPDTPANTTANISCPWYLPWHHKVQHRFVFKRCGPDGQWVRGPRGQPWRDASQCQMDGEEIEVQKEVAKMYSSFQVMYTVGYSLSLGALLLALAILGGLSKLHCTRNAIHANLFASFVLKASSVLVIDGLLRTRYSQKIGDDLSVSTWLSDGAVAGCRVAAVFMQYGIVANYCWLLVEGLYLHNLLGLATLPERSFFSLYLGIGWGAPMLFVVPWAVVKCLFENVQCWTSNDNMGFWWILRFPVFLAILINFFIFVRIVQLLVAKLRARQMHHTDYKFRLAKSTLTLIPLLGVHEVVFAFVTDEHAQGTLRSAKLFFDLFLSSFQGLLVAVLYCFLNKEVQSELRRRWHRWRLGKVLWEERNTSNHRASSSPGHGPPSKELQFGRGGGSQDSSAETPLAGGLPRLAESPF

SMILES | EC50 [1] [nM] | EC50 [2] [nM] | half-life [3] [h] | half-lives [3] | EC50 [4] [nM]
CC[C@H](C)[C@H](NC(=O)[C@H](Cc1ccccc1)NC(=O)[C@H](C)NC(=O)C(C)(C)NC(=O)[C@H](CCC(N)=O)NC(=O)[C@H](C)NC(=O)[C@H](CCCCNC(=O)COCCOCCNC(=O)CCC[C@H](NC(=O)CCCCCCCCCCCCCCCCCCC(=O)O)C(=O)O)NC(=O)[C@H](CCCCN)NC(=O)[C@H](CC(=O)O)NC(=O)[C@H](CC(C)C)NC(=O)C(C)(CC(C)C)NC(=O)[C@@H](NC(=O)[C@H](CO)NC(=O)[C@H](Cc1ccc(O)cc1)NC(=O)[C@H](CC(=O)O)NC(=O)[C@H](CO)NC(=O)[C@@H](NC(=O)C(C)(Cc1ccccc1)NC(=O)[C@@H](NC(=O)CNC(=O)[C@H](CCC(N)=O)NC(=O)C(C)(C)NC(=O)[C@@H](N)Cc1ccc(O)cc1)[C@@H](C)O)[C@@H](C)O)[C@@H](C)CC)C(=O)N[C@@H](CCC(=O)O)C(=O)N[C@@H](Cc1ccc(O)cc1)C(=O)N[C@@H](CC(C)C)C(=O)N[C@@H](CC(C)C)C(=O)N[C@@H](CCC(=O)O)C(=O)NCCCCC(=O)N1CCC[C@H]1C(=O)N[C@@H](CO)C(=O)N[C@@H](CO)C(=O)NCC(=O)N[C@@H](C)C(=O)N1CCC[C@H]1C(=O)N1CCC[C@H]1C(=O)N1CCC[C@H]1C(=O)N[C@@H](CO)C(N)=O (stereo partly shown) [Compound 2] | 0.244 | 0.0406 | 108 | greater than 100 hours | 0.0181
CC[C@H](C)[C@H](NC(=O)[C@H](Cc1ccccc1)NC(=O)[C@H](C)NC(=O)C(C)(C)NC(=O)[C@H](CCC(N)=O)NC(=O)[C@H](C)NC(=O)[C@H](CCCCNC(=O)COCCOCCNC(=O)CCC[C@H](NC(=O)CCCCCCCCCCCCCCCCCCC(=O)O)C(=O)O)NC(=O)[C@H](CCCCN)NC(=O)[C@H](CC(=O)O)NC(=O)[C@H](CC(C)C)NC(=O)C(C)(CC(C)C)NC(=O)[C@@H](NC(=O)[C@H](CO)NC(=O)[C@H](Cc1ccc(O)cc1)NC(=O)[C@H](CC(=O)O)NC(=O)[C@H](CO)NC(=O)[C@@H](NC(=O)C(C)(Cc1ccccc1F)NC(=O)[C@@H](NC(=O)CNC(=O)[C@H](CCC(N)=O)NC(=O)C(C)(C)NC(=O)[C@@H](N)Cc1ccc(O)cc1)[C@@H](C)O)[C@@H](C)O)[C@@H](C)CC)C(=O)N[C@@H](CCC(=O)O)C(=O)N[C@@H](Cc1ccc(O)cc1)C(=O)N[C@@H](CC(C)C)C(=O)N[C@@H](CC(C)C)C(=O)N[C@@H](CCC(=O)O)C(=O)NCCCCC(=O)N1CCC[C@H]1C(=O)N[C@@H](CO)C(=O)N[C@@H](CO)C(=O)NCC(=O)N[C@@H](C)C(=O)N1CCC[C@H]1C(=O)N1CCC[C@H]1C(=O)N1CCC[C@H]1C(=O)N[C@@H](CO)C(N)=O (stereo partly shown) [Compound 6] | 0.141 | 0.0375 | 115 | greater than 100 hours | 0.0188

— patent EP4806910A1, “TRI-AGONIST COMPOUND” (priority 2023, dated 2025)
